Measured values published in ChEMBL document CHEMBL5674860, “Optimized Dual-Glo Assay to identify co-culture-induced drug vulnerabilities in 3D CRC models” (2024).

How the values were obtained:
Assay type in all cases: functional, Homo sapiens
Set-up in all cases: dose or concentration left out as unconfirmed
Colon cancer organoid [1] = test: Optimized Dual-Glo assay to identify co-culture induced drug vulnerabilities using donated chemical probes and chemogenomics kinase set in O14 CRC organoid and F14 CAF mono and co-culture. […] Cell viability is reported both mono and co-culture models.
Colon cancer organoid [2] = test: Optimized Dual-Glo assay to identify co-culture induced drug vulnerabilities using donated chemical probes and chemogenomics kinase set in O20 CRC organoid and F20 CAF mono and co-culture. […] Cell viability is reported both mono and co-culture models.
Colon cancer organoid [3] = test: Optimized Dual-Glo assay to identify co-culture induced drug vulnerabilities using donated chemical probes and chemogenomics kinase set in O06 CRC organoid and F06 CAF mono and co-culture. […] Cell viability is reported both mono and co-culture models.
[4] = Culture type Co-Culture, Transduced with Lucferase2-P2A-EGFP lentivirus
[5] = Culture type Co-Culture, Transduced with Renilla-dsRed lentivirus
[6] = Culture type Mono-Culture, Transduced with Lucferase2-P2A-EGFP lentivirus
[7] = Culture type Mono-Culture, Transduced with Renilla-dsRed lentivirus

COc1cc(N2CCC(O)CC2)ccc1Nc1cc(Nc2ccccc2S(=O)(=O)C(C)C)c2cc[nH]c2n1
Cell Viability (Colon cancer organoid [1]; [4]): 73.6565%
Cell Viability (Colon cancer organoid [1]; [5]): 103.778%
Cell Viability (Colon cancer organoid [1]; [6]): 68.2856%
Cell Viability (Colon cancer organoid [1]; [7]): 78.3072%
Cell Viability (Colon cancer organoid [2]; [4]): 108.471%
Cell Viability (Colon cancer organoid [2]; [5]): 84.332%
Cell Viability (Colon cancer organoid [2]; [6]): 70.9146%
Cell Viability (Colon cancer organoid [2]; [7]): 86.2422%
Cell Viability (Colon cancer organoid [3]; [4]): 85.241%
Cell Viability (Colon cancer organoid [3]; [5]): 81.2438%
Cell Viability (Colon cancer organoid [3]; [6]): 122.712%
Cell Viability (Colon cancer organoid [3]; [7]): 109.159%

CCc1cccc(CC)c1NC(=O)c1nn(C)c2c1CCc1cnc(Nc3ccc(C(=O)NC4CCN(C)CC4)cc3OC(F)(F)F)nc1-2
Cell Viability (Colon cancer organoid [1]; [4]): 20.0347%
Cell Viability (Colon cancer organoid [1]; [5]): 229.301%
Cell Viability (Colon cancer organoid [1]; [6]): 20.3776%
Cell Viability (Colon cancer organoid [1]; [7]): 93.7404%
Cell Viability (Colon cancer organoid [2]; [4]): 94.4005%
Cell Viability (Colon cancer organoid [2]; [5]): 107.437%
Cell Viability (Colon cancer organoid [2]; [6]): 25.0865%
Cell Viability (Colon cancer organoid [2]; [7]): 90.076%
Cell Viability (Colon cancer organoid [3]; [4]): 8.756%
Cell Viability (Colon cancer organoid [3]; [5]): 150.393%
Cell Viability (Colon cancer organoid [3]; [6]): 5.577%
Cell Viability (Colon cancer organoid [3]; [7]): 91.0019%

COc1cc(Nc2nccc(-c3cnn4nc(OC)ccc34)n2)cc(C(F)(F)F)c1
Cell Viability (Colon cancer organoid [1]; [4]): 8.865%
Cell Viability (Colon cancer organoid [1]; [5]): 107.014%
Cell Viability (Colon cancer organoid [1]; [6]): 18.5626%
Cell Viability (Colon cancer organoid [1]; [7]): 63.2458%
Cell Viability (Colon cancer organoid [2]; [4]): 11.0854%
Cell Viability (Colon cancer organoid [2]; [5]): 189.711%
Cell Viability (Colon cancer organoid [2]; [6]): 12.7509%
Cell Viability (Colon cancer organoid [2]; [7]): 71.1906%
Cell Viability (Colon cancer organoid [3]; [4]): 25.4978%
Cell Viability (Colon cancer organoid [3]; [5]): 199.418%
Cell Viability (Colon cancer organoid [3]; [6]): 18.9413%
Cell Viability (Colon cancer organoid [3]; [7]): 49.3331%

C[C@@H]1CCNC(=O)c2cc3ccc(C(=O)Nc4nc5ccccc5n4CCCN(C)C)cc3n21
Cell Viability (Colon cancer organoid [1]; [4]): 91.1023%
Cell Viability (Colon cancer organoid [1]; [5]): 83.3009%
Cell Viability (Colon cancer organoid [1]; [6]): 101.537%
Cell Viability (Colon cancer organoid [1]; [7]): 86.0489%
Cell Viability (Colon cancer organoid [2]; [4]): 64.9365%
Cell Viability (Colon cancer organoid [2]; [5]): 147.158%
Cell Viability (Colon cancer organoid [2]; [6]): 51.9591%
Cell Viability (Colon cancer organoid [2]; [7]): 102.286%
Cell Viability (Colon cancer organoid [3]; [4]): 65.6776%
Cell Viability (Colon cancer organoid [3]; [5]): 63.6239%
Cell Viability (Colon cancer organoid [3]; [6]): 102.952%
Cell Viability (Colon cancer organoid [3]; [7]): 73.3213%

COc1cc(C)c(Sc2cnc(NC(=O)c3ccc(CNC(C)C(C)(C)C)cc3)s2)cc1C(=O)N1CCN(C(C)=O)CC1 (stereo not drawn)
Cell Viability (Colon cancer organoid [1]; [4]): 66.3781%
Cell Viability (Colon cancer organoid [1]; [5]): 81.9892%
Cell Viability (Colon cancer organoid [1]; [6]): 56.9877%
Cell Viability (Colon cancer organoid [1]; [7]): 80.9779%
Cell Viability (Colon cancer organoid [2]; [4]): 92.0383%
Cell Viability (Colon cancer organoid [2]; [5]): 97.5626%
Cell Viability (Colon cancer organoid [2]; [6]): 38.3034%
Cell Viability (Colon cancer organoid [2]; [7]): 78.8109%
Cell Viability (Colon cancer organoid [3]; [4]): 97.8632%
Cell Viability (Colon cancer organoid [3]; [5]): 73.4932%
Cell Viability (Colon cancer organoid [3]; [6]): 75.5351%
Cell Viability (Colon cancer organoid [3]; [7]): 54.8582%

O=C(Nc1cccnc1)c1cc(-c2ccnc(F)c2)ccc1OCc1ccccc1
Cell Viability (Colon cancer organoid [1]; [4]): 118.198%
Cell Viability (Colon cancer organoid [1]; [5]): 103.257%
Cell Viability (Colon cancer organoid [1]; [6]): 132.36%
Cell Viability (Colon cancer organoid [1]; [7]): 106.667%
Cell Viability (Colon cancer organoid [2]; [4]): 125.655%
Cell Viability (Colon cancer organoid [2]; [5]): 104.766%
Cell Viability (Colon cancer organoid [2]; [6]): 84.3573%
Cell Viability (Colon cancer organoid [2]; [7]): 88.986%
Cell Viability (Colon cancer organoid [3]; [4]): 87.3368%
Cell Viability (Colon cancer organoid [3]; [5]): 83.1264%
Cell Viability (Colon cancer organoid [3]; [6]): 73.6273%
Cell Viability (Colon cancer organoid [3]; [7]): 99.0368%

CNc1nc(Nc2cnn([C@H]3CCN(C4COC4)C[C@@H]3F)c2Cl)ncc1C(F)(F)F
Cell Viability (Colon cancer organoid [1]; [4]): 116.318%
Cell Viability (Colon cancer organoid [1]; [5]): 104.728%
Cell Viability (Colon cancer organoid [1]; [6]): 169.727%
Cell Viability (Colon cancer organoid [1]; [7]): 102.216%
Cell Viability (Colon cancer organoid [2]; [4]): 199.298%
Cell Viability (Colon cancer organoid [2]; [5]): 86.9942%
Cell Viability (Colon cancer organoid [2]; [6]): 108.189%
Cell Viability (Colon cancer organoid [2]; [7]): 89.737%
Cell Viability (Colon cancer organoid [3]; [4]): 94.4056%
Cell Viability (Colon cancer organoid [3]; [5]): 87.0484%
Cell Viability (Colon cancer organoid [3]; [6]): 128.459%
Cell Viability (Colon cancer organoid [3]; [7]): 108.44%

CC(C)(O)CNc1ncc(-c2ccnc(Nc3ccnc(Cl)c3)n2)c(CC2CC2)n1
Cell Viability (Colon cancer organoid [1]; [4]): 100.5%
Cell Viability (Colon cancer organoid [1]; [5]): 183.934%
Cell Viability (Colon cancer organoid [1]; [6]): 107.577%
Cell Viability (Colon cancer organoid [1]; [7]): 192.643%
Cell Viability (Colon cancer organoid [2]; [4]): 67.7034%
Cell Viability (Colon cancer organoid [2]; [5]): 172.835%
Cell Viability (Colon cancer organoid [2]; [6]): 40.8339%
Cell Viability (Colon cancer organoid [2]; [7]): 186.893%
Cell Viability (Colon cancer organoid [3]; [4]): 30.6205%
Cell Viability (Colon cancer organoid [3]; [5]): 168.017%
Cell Viability (Colon cancer organoid [3]; [6]): 58.1247%
Cell Viability (Colon cancer organoid [3]; [7]): 187.59%

Cn1cc(-c2[nH]c3cc(NC(=O)[C@H](N)C4CCCCC4)cc4c3c2C=NNC4=O)cn1
Cell Viability (Colon cancer organoid [1]; [4]): 1.93%
Cell Viability (Colon cancer organoid [1]; [5]): 159.115%
Cell Viability (Colon cancer organoid [1]; [6]): 4.927%
Cell Viability (Colon cancer organoid [1]; [7]): 82.9355%
Cell Viability (Colon cancer organoid [2]; [4]): 23.152%
Cell Viability (Colon cancer organoid [2]; [5]): 172.741%
Cell Viability (Colon cancer organoid [2]; [6]): 12.2596%
Cell Viability (Colon cancer organoid [2]; [7]): 94.31%
Cell Viability (Colon cancer organoid [3]; [4]): 9.334%
Cell Viability (Colon cancer organoid [3]; [5]): 180.436%
Cell Viability (Colon cancer organoid [3]; [6]): 3.761%
Cell Viability (Colon cancer organoid [3]; [7]): 107.077%

O=C(Nc1ccc(-c2ccnc(Nc3ccc(N4CCOCC4)cc3)n2)cc1)[C@@H]1CCCN1
Cell Viability (Colon cancer organoid [1]; [4]): 127.595%
Cell Viability (Colon cancer organoid [1]; [5]): 79.807%
Cell Viability (Colon cancer organoid [1]; [6]): 135.011%
Cell Viability (Colon cancer organoid [1]; [7]): 98.0054%
Cell Viability (Colon cancer organoid [2]; [4]): 138.223%
Cell Viability (Colon cancer organoid [2]; [5]): 76.0213%
Cell Viability (Colon cancer organoid [2]; [6]): 82.2702%
Cell Viability (Colon cancer organoid [2]; [7]): 101.459%
Cell Viability (Colon cancer organoid [3]; [4]): 100.254%
Cell Viability (Colon cancer organoid [3]; [5]): 96.014%
Cell Viability (Colon cancer organoid [3]; [6]): 101.806%
Cell Viability (Colon cancer organoid [3]; [7]): 108.082%

CCC(=O)Nc1cccc(Oc2nc(Nc3ccc(N4CCN(C)CC4)cc3OC)ncc2Cl)c1
Cell Viability (Colon cancer organoid [1]; [4]): 114.921%
Cell Viability (Colon cancer organoid [1]; [5]): 101.654%
Cell Viability (Colon cancer organoid [1]; [6]): 90.6079%
Cell Viability (Colon cancer organoid [1]; [7]): 93.4216%
Cell Viability (Colon cancer organoid [2]; [4]): 125.445%
Cell Viability (Colon cancer organoid [2]; [5]): 105.023%
Cell Viability (Colon cancer organoid [2]; [6]): 80.3355%
Cell Viability (Colon cancer organoid [2]; [7]): 88.9581%
Cell Viability (Colon cancer organoid [3]; [4]): 92.8013%
Cell Viability (Colon cancer organoid [3]; [5]): 94.5997%
Cell Viability (Colon cancer organoid [3]; [6]): 65.5336%
Cell Viability (Colon cancer organoid [3]; [7]): 70.4946%

C=CC(=O)Nc1ccc2[nH]c(=O)n(C3CCN(C(=O)c4ccc(-c5nc6cc[nH]c(=O)c6cc5-c5ccccc5)cc4)CC3)c2c1
Cell Viability (Colon cancer organoid [1]; [4]): 111.176%
Cell Viability (Colon cancer organoid [1]; [5]): 112.94%
Cell Viability (Colon cancer organoid [1]; [6]): 102.423%
Cell Viability (Colon cancer organoid [1]; [7]): 83.7994%
Cell Viability (Colon cancer organoid [2]; [4]): 101.159%
Cell Viability (Colon cancer organoid [2]; [5]): 80.5582%
Cell Viability (Colon cancer organoid [2]; [6]): 103.07%
Cell Viability (Colon cancer organoid [2]; [7]): 78.5683%
Cell Viability (Colon cancer organoid [3]; [4]): 100.634%
Cell Viability (Colon cancer organoid [3]; [5]): 129.997%
Cell Viability (Colon cancer organoid [3]; [6]): 117.336%
Cell Viability (Colon cancer organoid [3]; [7]): 96.7859%

CCN(Cc1ccc(Cl)cc1)c1ncc(C(=O)NCCCN2CCCC2=O)c(NC2CCCC2)n1
Cell Viability (Colon cancer organoid [1]; [4]): 82.1387%
Cell Viability (Colon cancer organoid [1]; [5]): 108.641%
Cell Viability (Colon cancer organoid [1]; [6]): 123.72%
Cell Viability (Colon cancer organoid [1]; [7]): 100.116%
Cell Viability (Colon cancer organoid [2]; [4]): 67.2116%
Cell Viability (Colon cancer organoid [2]; [5]): 104.655%
Cell Viability (Colon cancer organoid [2]; [6]): 126.603%
Cell Viability (Colon cancer organoid [2]; [7]): 126.47%
Cell Viability (Colon cancer organoid [3]; [4]): 130.769%
Cell Viability (Colon cancer organoid [3]; [5]): 112.754%
Cell Viability (Colon cancer organoid [3]; [6]): 126.765%
Cell Viability (Colon cancer organoid [3]; [7]): 120.519%

CC(C)S(=O)(=O)c1ccc2nccc(Nc3ccc4scnc4c3)c2c1
Cell Viability (Colon cancer organoid [1]; [4]): 101.708%
Cell Viability (Colon cancer organoid [1]; [5]): 94.4181%
Cell Viability (Colon cancer organoid [1]; [6]): 92.6068%
Cell Viability (Colon cancer organoid [1]; [7]): 100.536%
Cell Viability (Colon cancer organoid [2]; [4]): 145.741%
Cell Viability (Colon cancer organoid [2]; [5]): 98.2209%
Cell Viability (Colon cancer organoid [2]; [6]): 115.329%
Cell Viability (Colon cancer organoid [2]; [7]): 92.1603%
Cell Viability (Colon cancer organoid [3]; [4]): 84.0973%
Cell Viability (Colon cancer organoid [3]; [5]): 95.5761%
Cell Viability (Colon cancer organoid [3]; [6]): 123.937%
Cell Viability (Colon cancer organoid [3]; [7]): 111.512%
